# In the PolyMetriX glass transition set:
# ± gives the standard deviation of the reports.
row,glass transition temperature,Compound
1,0.60 °C,*c1ccc(-c2ccc(-c3cc(CCCCCCCC)c(-c4ccc(-c5sc(*)cc5CCCCCCCC)cc4)s3)cc2)cc1 (repeat unit)
2,-27.00 °C,*CC#CCOC(=O)CCCCCCCCCCC(=O)O* (repeat unit)
3,52.00 °C,*CCOC(=O)Nc1cc(NC(=O)O*)ccc1C (repeat unit)
4,191.00 °C,*Oc1ccc(C(=O)c2cccc(NC(=O)c3cccc(C(=O)Nc4cccc(C(=O)c5ccc(*)cc5)c4)c3)c2)cc1 (repeat unit)
5,17.00 °C,*OC(=O)OCCOCCOCCOC(=O)OC1COC2C(*)COC12 (repeat unit)
6,182.00 °C,*Oc1ccc(Oc2ccc(C(=O)c3ccc(-c4ccc(C(=O)c5ccc(*)cc5)cc4)cc3)cc2)cc1-c1ccc(S(=O)(=O)O)c(C)c1 (repeat unit)
7,345.00 °C,*c1ccc(C(c2ccc(-c3nc4ccc(-c5ccc6nc(*)oc6c5)cc4o3)cc2)(C(F)(F)F)C(F)(F)F)cc1 (repeat unit)
8,116.00 °C,*CCCCCCNC(=O)c1ccc(C(=O)N*)c(Oc2ccc(Br)cc2)c1 (repeat unit)
9,204.00 °C,*c1cccc(Oc2ccc(Oc3cccc(N4C(=O)c5ccc(Oc6ccc7c(c6)C(=O)N(*)C7=O)cc5C4=O)c3)cc2)c1 (repeat unit)
10,218.00 °C,*Oc1cccc2ccc(Oc3ccc(NC(=O)c4ccc(Oc5ccc(S(=O)(=O)c6ccc(Oc7ccc(C(=O)Nc8ccc(*)cc8)cc7)cc6)cc5)cc4)cc3)cc12 (repeat unit)
11,18.00 °C,*CC(*)(C)C(=O)OCCCCCCCCCOc1ccc2cc(C(=O)Oc3ccccc3)ccc2c1 (repeat unit)
12,205.00 °C,*CC(c1ccccc1)C1C(=O)N(C)C(=O)C1* (repeat unit)
13,159.00 °C,*Oc1ccc(C(c2ccc(Oc3ccc(C(=O)c4cccc(-c5cccc(C(=O)c6ccc(*)cc6)c5)c4)cc3)cc2)(C(F)(F)F)C(F)(F)F)cc1 (repeat unit)
14,328.00 °C,*C(=O)Nc1ccc(C2(c3ccc(N4C(=O)c5ccc(*)cc5C4=O)cc3)CC(C)CC(C)(C)C2)cc1 (repeat unit)
15,85.00 °C,*CC(*)C(=O)Oc1cccc2ccccc12 (repeat unit)
16,137 ± 0.6 °C,"*Oc1ccc(C(C)(CCC)c2ccc(OC(*)=O)cc2)cc1 (repeat unit) [Poly[2,2-pentane bis(4-phenyl)carbonate]]"
17,40.00 °C,*CCCCCCCCCCCNC(=O)CCCCCCCCC(=O)N* (repeat unit)
18,203.00 °C,*Oc1ccc(/N=N/c2c(C)cc(Cc3cc(C)c(/N=N/c4ccc(OC(=O)c5ccc(C(*)=O)cc5)cc4)c(C)c3[N+](=O)[O-])c([N+](=O)[O-])c2C)cc1 (repeat unit)
19,185.00 °C,*c1ccc(C(=O)NCCCCCCCCNC(=O)c2ccc(-c3nc4ccccc4nc3*)cc2)cc1 (repeat unit)
20,300.00 °C,*Nc1ccc(C(=O)c2ccc(NC(=O)c3ccc(C(*)=O)cc3)cc2)cc1 (repeat unit)
21,55.00 °C,*CCCCCCCCCCNC(=O)NCc1ccc(CNC(=O)N*)cc1 (repeat unit)
22,266.00 °C,*c1ccc(Oc2ccc(N3C(=O)c4ccc(Oc5c(C)cc(Cc6cc(C)c(Oc7ccc8c(c7)C(=O)N(*)C8=O)c(C)c6)cc5C)cc4C3=O)cc2)cc1 (repeat unit)
23,303.00 °C,*Nc1cccc(NC(=O)c2ccc(NC(=O)c3ccc([Si](C)(C)c4ccc(C(=O)Nc5ccc(C(*)=O)cc5)cc4)cc3)cc2)c1 (repeat unit)
24,45.00 °C,*CC(*)OC(=O)CCCC(=O)c1ccccc1 (repeat unit)
25,169.00 °C,*c1ccc2c(c1)C(=O)N(c1ccc(OCCCCOc3ccc(N4C(=O)c5ccc(C(*)(C(F)(F)F)C(F)(F)F)cc5C4=O)cc3)cc1)C2=O (repeat unit)
26,302.00 °C,*c1ccc(-c2ccc(N3C(=O)c4ccc(-c5ccc6c(c5)C(=O)N(*)C6=O)cc4C3=O)c(C)c2)cc1C (repeat unit)
27,213.00 °C,*c1ccc(Oc2ccc(-c3ccc(Oc4ccc(-c5cnc6cc(-c7ccc8nc(*)cnc8c7)ccc6n5)cc4)cc3)cc2)cc1 (repeat unit)
28,78.00 °C,*c1ccc(NC(=O)c2cccc(C(=O)Nc3ccc(S(*)(=O)=O)cc3)c2)cc1 (repeat unit)

row,glass transition temperature,Compound
1,4.00 °C,*CCCCCCCC(c1ccc(O)cc1)C(*)c1ccc(O)cc1C (repeat unit)
2,210.00 °C,*c1ccc(Oc2ccc(N3C(=O)c4ccc(Oc5ccc(C(=O)c6ccc(Oc7ccc8c(c7)C(=O)N(*)C8=O)cc6)cc5)cc4C3=O)cc2)cc1 (repeat unit)
3,135.00 °C,*CCCCCCCN1C(=O)c2ccc(-c3ccc(-c4ccc5c(c4)C(=O)N(*)C5=O)cc3)cc2C1=O (repeat unit)
4,101.00 °C,*CC(O)CN(C)S(=O)(=O)c1ccc(-c2ccc(S(=O)(=O)N(C)CC(O)COc3ccc(C(C)(C)c4ccc(O*)cc4)cc3)cc2)cc1 (repeat unit)
5,4.00 °C,*CCCCCCCCCCCC(c1ccc(O)cc1)C(*)c1ccc(O)cc1C (repeat unit)
6,190.00 °C,*CCCCCNc1nc(NCCCCCc2nc3cc(-c4ccc5[nH]c(*)nc5c4)ccc3[nH]2)nc(N(CC)CC)n1 (repeat unit)
7,307.00 °C,*c1ccc(NC(=O)c2cc(C(=O)Nc3ccc(S(*)(=O)=O)cc3)cc(S(=O)(=O)c3ccccc3)c2)cc1 (repeat unit)
8,38.00 °C,*Oc1ccc(CC(NC(=O)Cc2ccc(OC(=O)CCCC(*)=O)cc2)C(=O)OCCCCCCCC)cc1 (repeat unit)
9,16.00 °C,*CCCCCCOC(=O)CC(=O)OCCCCCCOc1ccc(-n2on2-c2ccc(O*)cc2)cc1 (repeat unit)
10,248.8 ± 18 °C,*C(=O)c1ccc2c(c1)C(=O)N(c1ccc(Oc3ccc(C(c4ccc(Oc5ccc(N6C(=O)c7ccc(*)cc7C6=O)cc5)cc4)(C(F)(F)F)C(F)(F)F)cc3)cc1)C2=O (repeat unit)
11,170.00 °C,*Oc1ccc(S(=O)(=O)c2ccc(OC(=O)c3cc(CCCCC)cc(C(*)=O)c3)cc2)cc1 (repeat unit)
12,273.00 °C,*Oc1ccc(NC(=O)c2cccc(C(=O)Nc3ccc(Oc4ccc(C5(c6ccc(*)cc6)C6CC7CC(C6)CC5C7)cc4)cc3)c2)cc1 (repeat unit)
13,224.50 °C,*c1ccc(Oc2ccc(Oc3ccc(N4C(=O)c5ccc(Oc6cc7ccccc7cc6Oc6ccc7c(c6)C(=O)N(*)C7=O)cc5C4=O)cc3)cc2)cc1 (repeat unit)
14,224.00 °C,*c1cccc(C(=O)c2ccc(Oc3ccc(N4C(=O)c5ccc(Oc6ccc7c(c6)C(=O)N(*)C7=O)cc5C4=O)cc3C(F)(F)F)cc2)c1 (repeat unit)
15,140.00 °C,*Oc1c(Cl)cc(C(C)(C)c2cc(Cl)c(OC(=O)c3ccc(OCCCCCCCCCCOc4ccc(C(*)=O)cc4)cc3)c(Cl)c2)cc1Cl (repeat unit)
16,298.00 °C,*c1ccc2c(c1)C(=O)N(c1ccc(Oc3c(C)cc(Cc4cc(C)c(Oc5ccc(N6C(=O)c7ccc(C(*)(C(F)(F)F)C(F)(F)F)cc7C6=O)cc5)c(C)c4)cc3C)cc1)C2=O (repeat unit)
17,126.00 °C,*Oc1ccc(C(=O)c2cccc(C(=O)c3ccc(*)c(CC)c3)c2)cc1CC (repeat unit)
18,304.00 °C,*C(=O)Nc1ccc(-c2ccc(NC(=O)c3ccc4c(c3)C(=O)N(c3ccc(Oc5cccc6c(N7C(=O)c8ccc(*)cc8C7=O)cccc56)cc3)C4=O)c(OC)c2)cc1OC (repeat unit)
19,297.00 °C,*Oc1ccc(S(=O)(=O)c2ccc(Oc3ccc(C4(c5ccc(*)cc5)C5CC6CC(C5)CC4C6)cc3)cc2)cc1 (repeat unit)
20,147.00 °C,*Oc1ccc(Oc2ccc(C(=O)c3ccc(C(=O)c4ccc(*)cc4)cc3)cc2)cc1-c1ccc(Cl)c(C(F)(F)F)c1 (repeat unit)
21,35.00 °C,*CCCCCCCCCOC(=O)c1ccc(C(=O)O*)cc1 (repeat unit)
22,-38.00 °C,*O[Si](C)(C)O[Si](C)(C)O[Si](C)(C)O[Si](C)(C)O[Si](C)(C)Oc1c(*)c2ccccc2c2ccccc12 (repeat unit)
23,229.00 °C,*C(=O)Nc1ccc(Oc2ccccc2-c2ccccc2Oc2ccc(NC(=O)c3ccc4c(c3)C(=O)N(c3ccc(Oc5cccc(Oc6ccc(N7C(=O)c8ccc(*)cc8C7=O)cc6)c5)cc3)C4=O)cc2)cc1 (repeat unit)
24,428.00 °C,*Oc1ccc(C2(c3ccc(Oc4ccc5c(=O)n6c7cc(-c8ccc9c(c8)nc8c%10ccc(*)c%11cccc(c(=O)n98)c%11%10)ccc7nc6c6cccc4c56)cc3)c3ccccc3C(=O)c3ccccc32)cc1 (repeat unit)
25,326.00 °C,*c1ccc(-c2nc3cc(Oc4ccc5nc(*)c(-c6ccccc6)nc5c4)ccc3nc2-c2ccccc2)cc1 (repeat unit)
26,139.00 °C,*C(c1ccc(N(C)C)cc1)C(*)c1ccc([N+](=O)[O-])cc1 (repeat unit)
27,232.00 °C,*c1ccc(Cc2ccc(N3C(=O)c4ccc(Oc5ccc(C6(c7ccc(Oc8ccc9c(c8)C(=O)N(*)C9=O)cc7)CCC(c7ccccc7)CC6)cc5)cc4C3=O)cc2)cc1 (repeat unit)

row,Compound,glass transition temperature
1,*C(*)C(=O)OC (repeat unit),85.8 °C
2,*OP(=O)(Oc1ccc(C(C)(C)c2ccc(*)cc2)cc1)Oc1c(Cl)c(Cl)c(Cl)c(Cl)c1Cl (repeat unit),130.00 °C
3,*CC(*)(C)C(=O)OCCCCCCCC (repeat unit),-11.00 °C
4,*C1C2C/C(=C\C)C(C2)C1* (repeat unit),61.40 °C
5,*CC(*)S(=O)(=O)c1ccccc1 (repeat unit),128.00 °C
6,*N=P(*)(C)C (repeat unit),-42.00 °C
7,*CC(*)C(=O)Oc1ccc(C#N)cc1 (repeat unit),92.00 °C
8,*CC(CC)(CO)CO* (repeat unit),331.90 °C
9,*CCOCCOP(=O)(/N=N/c1ccc(C(=O)c2ccc(/N=N/P(=O)(O*)OC)cc2)cc1)OC (repeat unit),33.00 °C
